In PubChem BioAssay (NCI):
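Tested at 5 concentrations; 48 h exposure; 96-well plates; endpoints linearly interpolated, else capped at highest concentration. GI50: concentration for 50% inhibition of growth. The concentration for full growth arrest is given as TGI.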

What was measured:
Assay in all cases: NCI anticancer screen, dose series, 48 h
[1] = system: 786-0 renal
[2] = system: A498 renal
[3] = system: A549 NSCLC
[4] = system: ACHN renal
[5] = system: BT-549 breast
[6] = system: CAKI-1 renal
[7] = system: CCRF-CEM leukemia
[8] = system: COLO 205 colon
[9] = system: DU-145 prostate
[10] = system: EKVX NSCLC
[11] = system: HCC-2998 colon
[12] = system: HCT-116 colon
[13] = system: HCT-15 colon
[14] = system: HL-60(TB) leukemia
[15] = system: HOP-62 NSCLC
[16] = system: HOP-92 NSCLC
[17] = system: HS 578T breast
[18] = system: HT29 colon
[19] = system: IGROV1 ovarian
[20] = system: K-562 leukemia
[21] = system: KM12 colon
[22] = system: LOX IMVI melanoma
[23] = system: M14 melanoma
[24] = system: MALME-3M melanoma
[25] = system: MCF7 breast
[26] = system: MDA-MB-231 breast
[27] = system: MDA-MB-435
[28] = system: MOLT-4 leukemia
[29] = system: NCI-H226 lung
[30] = system: NCI-H23 lung
[31] = system: NCI-H522 lung
[32] = system: NCI/ADR-RES ovarian
[33] = system: OVCAR-3 ovarian
[34] = system: OVCAR-4 ovarian
[35] = system: OVCAR-5 ovarian
[36] = system: OVCAR-8 ovarian
[37] = system: PC-3 prostate
[38] = system: RPMI-8226 leukemia
[39] = system: RXF 393 renal
[40] = system: SF-268 CNS
[41] = system: SF-295 CNS
[42] = system: SF-539 CNS
[43] = system: SK-MEL-2 melanoma
[44] = system: SK-MEL-28 melanoma
[45] = system: SK-MEL-5 melanoma
[46] = system: SK-OV-3 ovarian
[47] = system: SN12C renal
[48] = system: SNB-19 CNS
[49] = system: SNB-75 CNS
[50] = system: SR leukemia
[51] = system: SW-620 colon
[52] = system: T-47D breast
[53] = system: TK-10 renal
[54] = system: U251 CNS
[55] = system: UACC-257 melanoma
[56] = system: UACC-62 melanoma
[57] = system: UO-31 renal
[58] = system: NCI-H460 lung

## Cc1cc(NS(=O)(=O)c2ccc(NC(=O)COc3ccc(-c4cc5ccccc5[nH]4)cc3)cc2)no1
[1]
  GI50: 1930 nM
  TGI: 3650 nM
[2]
  GI50: 1700 nM
  TGI: 6580 nM
[3]
  GI50: 2180 nM
  TGI: 6390 nM
[4]
  GI50: 2440 nM
  TGI: 6900 nM
[5]
  GI50: 2120 nM
  TGI: 5970 nM
[6]
  GI50: 2570 nM
  TGI: 9280 nM
[7]
  GI50: 2130 nM
  TGI: > 100000 nM
[8]
  GI50: 1780 nM
  TGI: 3270 nM
[9]
  GI50: 2220 nM
  TGI: 5180 nM
[10]
  GI50: 2320 nM
  TGI: 8450 nM
[11]
  GI50: 2070 nM
  TGI: 4940 nM
[12]
  GI50: 1840 nM
  TGI: 5010 nM
[13]
  GI50: 2320 nM
  TGI: 7350 nM
[14]
  GI50: 2840 nM
  TGI: 32600 nM
[15]
  GI50: 2950 nM
  TGI: 7740 nM
[16]
  GI50: 1300 nM
  TGI: 3830 nM
[17]
  GI50: 1980 nM
  TGI: 4980 nM
[18]
  GI50: 1730 nM
  TGI: 3440 nM
[19]
  GI50: 2020 nM
  TGI: 4410 nM
[20]
  GI50: 2060 nM
  TGI: > 100000 nM
[21]
  GI50: 1510 nM
  TGI: 3240 nM
[22]
  GI50: 1860 nM
  TGI: 5180 nM
[23]
  GI50: 1710 nM
  TGI: 4320 nM
[24]
  GI50: 1500 nM
  TGI: 3850 nM
[25]
  GI50: 2080 nM
  TGI: 4690 nM
[26]
  GI50: 1660 nM
  TGI: 4370 nM
[27]
  GI50: 1380 nM
  TGI: 3130 nM
[28]
  GI50: 2050 nM
  TGI: 9720 nM
[29]
  GI50: 2140 nM
  TGI: 9880 nM
[30]
  GI50: 1910 nM
  TGI: 5000 nM
[31]
  GI50: 1790 nM
  TGI: 4090 nM
[32]
  GI50: 2640 nM
  TGI: 9370 nM
[33]
  GI50: 1720 nM
  TGI: 3750 nM
[34]
  GI50: 1530 nM
  TGI: 3980 nM
[35]
  GI50: 2260 nM
  TGI: 5680 nM
[36]
  GI50: 2010 nM
  TGI: 4770 nM
[37]
  GI50: 1940 nM
  TGI: 6910 nM
[38]
  GI50: 2870 nM
  TGI: > 100000 nM
[39]
  GI50: 1240 nM
  TGI: 2600 nM
[40]
  GI50: 2330 nM
  TGI: 7740 nM
[41]
  GI50: 1940 nM
  TGI: 4910 nM
[42]
  GI50: 1980 nM
  TGI: 4610 nM
[43]
  GI50: 1860 nM
  TGI: 3760 nM
[44]
  GI50: 1550 nM
  TGI: 3170 nM
[45]
  GI50: 2340 nM
  TGI: 6840 nM
[46]
  GI50: 1850 nM
  TGI: 3550 nM
[47]
  GI50: 2240 nM
  TGI: 10400 nM
[48]
  GI50: 2230 nM
  TGI: 8690 nM
[49]
  GI50: 1500 nM
  TGI: 4680 nM
[50]
  GI50: 1670 nM
  TGI: > 100000 nM
[51]
  GI50: 1480 nM
  TGI: 3520 nM
[52]
  GI50: 2750 nM
  TGI: 8560 nM
[53]
  GI50: 2040 nM
  TGI: 5450 nM
[54]
  GI50: 1860 nM
  TGI: 6740 nM
[55]
  GI50: 2070 nM
  TGI: 6270 nM
[56]
  GI50: 1530 nM
  TGI: 3260 nM
[57]
  GI50: 1410 nM
  TGI: 3760 nM

## COc1cc2c(cc1OCc1ccccc1)N=C[C@@H]1C[C@@H](F)CN1C2=O
[1]
  GI50: 189 nM
  TGI: 661 nM
[2]
  GI50: 1500 nM
  TGI: 3480 nM
[3]
  GI50: 829 nM
  TGI: 6980 nM
[4]
  GI50: 242 nM
  TGI: 669 nM
[5]
  TGI: 785 nM
[6]
  GI50: 6690 nM
  TGI: 26100 nM
[7]
  GI50: 355 nM
  TGI: 1590 nM
[8]
  GI50: 583 nM
  TGI: 9640 nM
[9]
  GI50: 144 nM
  TGI: 1660 nM
[10]
  GI50: 730 nM
  TGI: 2290 nM
[11]
  GI50: 496 nM
  TGI: 3020 nM
[13]
  GI50: 282 nM
  TGI: 893 nM
[15]
  GI50: 236 nM
  TGI: 2700 nM
[17]
  TGI: 503 nM
[18]
  GI50: 322 nM
  TGI: > 42800 nM
[19]
  TGI: 411 nM
[20]
  GI50: 500 nM
  TGI: > 100000 nM
[21]
  GI50: 1550 nM
  TGI: 4050 nM
[23]
  GI50: 158 nM
  TGI: 402 nM
[24]
  GI50: 1580 nM
  TGI: 3130 nM
[25]
  GI50: 275 nM
  TGI: 2320 nM
[26]
  GI50: 232 nM
  TGI: 553 nM
[27]
  GI50: 857 nM
  TGI: 2390 nM
[28]
  GI50: 353 nM
  TGI: > 100000 nM
[29]
  GI50: 197 nM
  TGI: 447 nM
[30]
  GI50: 195 nM
  TGI: 572 nM
[58]
  GI50: 1920 nM
  TGI: 7130 nM
[31]
  TGI: 187 nM
[32]
  GI50: 265 nM
  TGI: 1090 nM
[33]
  GI50: 315 nM
  TGI: 787 nM
[34]
  GI50: 2310 nM
  TGI: 27400 nM
[35]
  GI50: 298 nM
  TGI: 12100 nM
[36]
  GI50: 565 nM
  TGI: 5890 nM
[37]
  TGI: 1020 nM
[38]
  GI50: < 50.1 nM
[39]
  GI50: 217 nM
  TGI: 511 nM
[40]
  GI50: 184 nM
  TGI: 1000 nM
[41]
  GI50: 678 nM
  TGI: 1850 nM
[42]
  GI50: 1520 nM
  TGI: 4680 nM
[43]
  GI50: 279 nM
[44]
  GI50: 748 nM
  TGI: 13700 nM
[45]
  GI50: 156 nM
  TGI: 356 nM
[46]
  GI50: 2810 nM
  TGI: 45800 nM
[47]
  GI50: 273 nM
  TGI: 3400 nM
[48]
  GI50: 596 nM
  TGI: 18200 nM
[49]
  GI50: 894 nM
  TGI: > 100000 nM
[50]
  GI50: 290 nM
  TGI: 1460 nM
[51]
  TGI: 1210 nM
[52]
  GI50: 577 nM
  TGI: 18700 nM
[53]
  GI50: 1490 nM
  TGI: 4520 nM
[54]
  GI50: 154 nM
  TGI: 400 nM
[55]
  GI50: 569 nM
  TGI: 3000 nM
[56]
  GI50: 183 nM
  TGI: 369 nM
[57]
  TGI: 483 nM
